Laboratory results as given in patent US20100009014A1, “Use of composition for manufacture of medicant and method for inhibiting formation of body fat” (Maxluck Biotechnology Corp., priority 2008, published 2010).

Test: Epididymal fat weight and body weight, lactoferrin vs trivalent chromium vs combination (Test Example 5)
Type: in vivo, C57BL/6JNarl mice
Conditions: fed 7 weeks; for Body weight / Epididymal fat weight: high-fat diet
Description: The C57BL/6JNarl mice (N=70) are fed with a mouse diet (high-fat Rodent TestDiet, PMI Nutrition International Inc., MO, U.S.A.; 67% of calories provided by fat). The C57BL/6JNarl mice are randomly divided into seven groups and there are ten mice in each group. In one experimental group, the mice are fed with the mouse diet mixed with lactoferrin (NZMP lactoferrin, New Zealand, low dose: 40 mg/kg BW/day, high dose: 80 mg/kg BW/day). In another experimental group, the mice are fed with the mouse diet mixed with trivalent chromium (chromium (III) chloride hexahydrate, low dose: 40 μg/kg BW/day Cr^3+, high dose: 80 μg/kg BW/day Cr^3+). In yet another experimental group, the mice are fed with the mouse diet mixed with a lactoferrin/trivalent chromium composition (low dose: lactoferrin of 40 mg/kg BW/day with Cr^3+ of 40 μg/kg BW/day, high dose: lactoferrin of 80 mg/kg BW/day with Cr^3+ of 80 μg/kg BW/day). In the control group, the mice are fed with the mouse diet containing no other additive. The C57BL/6JNarl mice aged 8 weeks are fed for 7 weeks and then sacrificed to measure the weight of Epididymal fat and body weight, as shown in Table 5.
Accordingly, it can be known that the lactoferrin/trivalent chromium composition provides more significant efficiency in comparison to single lactoferrin or trivalent chromium.

[1] = High dose (lactoferrin 80 mg/kg BW/day and/or Cr3+ 80 μg/kg BW/day)
[2] = Low dose (lactoferrin 40 mg/kg BW/day and/or Cr3+ 40 μg/kg BW/day)

SMILES: O.O.O.O.O.O.[Cl][Cr]([Cl])[Cl] [Trivalent Chromium, chromium (III) chloride hexahydrate]
- Body weight [1]: 27.7 ± 1.35 g
- Epididymal fat weight [1]: 0.82 ± 0.2 g
- Body weight [2]: 27.8 ± 1.33 g
- Epididymal fat weight [2]: 0.78 ± 0.16 g
- Epididymal fat weight and body weight vs control group (in words): cannot achieve significant efficiency
